Laboratory results reported in ChEMBL document CHEMBL1201861, “Genomics of Drug Sensitity in Cancer screening data, Wellcome Trust Sanger Institute”.

What was measured:
Experiment in all cases: cells
OMC-1 = type: functional, cell-based, Homo sapiens; conditions: Homo sapiens, OMC-1;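 also: growth inhibition of the OMC-1 cell line, measured by a cell viability assay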
Description: SANGER: Inhibition of human OMC-1 cell growth in a cell viability assay.

SF-268 = type: functional, cell-based, Homo sapiens; conditions: Homo sapiens, SF-268;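 also: growth inhibition of SF-268 cells determined with a cell viability assay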
Description: SANGER: Inhibition of human SF268 cell growth in a cell viability assay.

ES7 = type: functional, cell-based, Homo sapiens; conditions: Homo sapiens, ES7;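 also: growth inhibition of cultured human ES7 cells, read out as cell viability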
Description: SANGER: Inhibition of human ES7 cell growth in a cell viability assay.

HT-144 = type: functional, cell-based, Homo sapiens; conditions: Homo sapiens, HT-144
Description: SANGER: Inhibition of human HT-144 cell growth in a cell viability assay.

COLO-800 = type: functional, cell-based, Homo sapiens; conditions: Homo sapiens, COLO-800;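 also: growth inhibition of COLO-800 cells, read out with a cell viability assay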
Description: SANGER: Inhibition of human COLO-800 cell growth in a cell viability assay.

NCI-H1304 = type: functional, cell-based, Homo sapiens; conditions: Homo sapiens, NCI-H1304;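 also: growth inhibition of the cancer cell line, measured in a cell viability assay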
Description: SANGER: Inhibition of human NCI-H1304 cell growth in a cell viability assay.

MMAC-SF = type: functional, cell-based; conditions: Homo sapiens;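 also: growth inhibition of human MMAC-SF cells, read out with a cell viability assay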
Description: SANGER: Inhibition of human MMAC-SF cell growth in a cell viability assay.

RCC10RGB = type: functional, cell-based, Homo sapiens; conditions: Homo sapiens, RCC10RGB;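 also: growth inhibition of human RCC10RGB cells, read out by a cell viability assay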
Description: SANGER: Inhibition of human RCC10RGB cell growth in a cell viability assay.

EW-13 = type: functional, cell-based, Homo sapiens; conditions: Homo sapiens, EW-13; read-out: IC50;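 also: growth inhibition of EW-13 cells, read out with a cell viability assay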
Description: SANGER: Inhibition of human EW-13 cell growth in a cell viability assay.

HCE-T = type: functional, cell-based, Homo sapiens; conditions: Homo sapiens, HCE-T;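 also: cell viability assay read-out, reporting inhibition of HCE-T cell growth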
Description: SANGER: Inhibition of human HCE-T cell growth in a cell viability assay.

COR-L88 = type: functional, cell-based, Homo sapiens; conditions: Homo sapiens, COR-L88;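 also: growth inhibition of COR-L88 cells, read out with a cell viability assay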
Description: SANGER: Inhibition of human COR-L88 cell growth in a cell viability assay.

NCI-H747 = type: functional, cell-based, Homo sapiens; conditions: Homo sapiens, NCI-H747;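 also: growth inhibition of human NCI-H747 cells, read out by a cell viability assay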
Description: SANGER: Inhibition of human NCI-H747 cell growth in a cell viability assay.

NCI-H1838 = type: functional, cell-based, Homo sapiens; conditions: Homo sapiens, NCI-H1838;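 also: growth inhibition of NCI-H1838 cells, determined with a cell viability readout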
Description: SANGER: Inhibition of human NCI-H1838 cell growth in a cell viability assay.

GI-ME-N = type: functional, cell-based, Homo sapiens; conditions: Homo sapiens, GI-ME-N;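 also: growth inhibition of human GI-ME-N cells, read out with a cell viability assay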
Description: SANGER: Inhibition of human GI-ME-N cell growth in a cell viability assay.

MSTO-211H = type: functional, cell-based, Homo sapiens; conditions: Homo sapiens, MSTO-211H
Description: SANGER: Inhibition of human MSTO-211H cell growth in a cell viability assay.

HH = type: functional, cell-based, Homo sapiens; conditions: Homo sapiens, HH
Description: SANGER: Inhibition of human HH cell growth in a cell viability assay.

LB2241-RCC = type: functional, cell-based, Homo sapiens; conditions: Homo sapiens, LB2241-RCC;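 also: cell viability assay measuring how strongly the cultured human renal carcinoma line is prevented from growing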
Description: SANGER: Inhibition of human LB2241-RCC cell growth in a cell viability assay.

SJSA-1 = type: functional, cell-based, Homo sapiens; conditions: Homo sapiens, SJSA-1;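 also: growth inhibition of human SJSA-1 cells, read out through a cell viability measurement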
Description: SANGER: Inhibition of human SJSA-1 cell growth in a cell viability assay.

CGTH-W-1 = type: functional, cell-based, Homo sapiens; conditions: Homo sapiens, CGTH-W-1;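 also: growth inhibition of human CGTH-W-1 cells measured by cell viability assay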
Description: SANGER: Inhibition of human CGTH-W-1 cell growth in a cell viability assay.

ALL-PO = type: functional, cell-based, Homo sapiens; conditions: Homo sapiens, ALL-PO;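 also: growth inhibition of ALL-PO cells, read out by a cell viability assay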
Description: SANGER: Inhibition of human ALL-PO cell growth in a cell viability assay.

LXF-289 cell line = type: functional, cell-based; conditions: Homo sapiens
Description: SANGER: Inhibition of human LXF-289 cell growth in a cell viability assay.

SK-MEL-2 = type: functional, cell-based, Homo sapiens; conditions: Homo sapiens, SK-MEL-2;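 also: growth inhibition of human SK-MEL-2 cells measured with a cell viability assay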
Description: SANGER: Inhibition of human SK-MEL-2 cell growth in a cell viability assay.

MPP-89 = type: functional, cell-based, Homo sapiens; conditions: Homo sapiens, MPP-89;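 also: growth inhibition of human MPP-89 cells, read out with a cell viability assay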
Description: SANGER: Inhibition of human MPP-89 cell growth in a cell viability assay.

K562 = type: functional, cell-based, Homo sapiens; conditions: Homo sapiens, K562
Description: SANGER: Inhibition of human K-562 cell growth in a cell viability assay.

SNU-5 = type: functional, cell-based, Homo sapiens; conditions: Homo sapiens, SNU-5;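 also: cell viability readout used to measure growth inhibition in human NCI-SNU-5 cells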
Description: SANGER: Inhibition of human NCI-SNU-5 cell growth in a cell viability assay.

SBC-1 = type: functional, cell-based, Homo sapiens; conditions: Homo sapiens, SBC-1;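 also: cell viability assay measuring growth inhibition of the SBC-1 cell line, IC50 being the concentration that halves growth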
Description: SANGER: Inhibition of human SBC-1 cell growth in a cell viability assay.

NB5 = type: functional, cell-based, Homo sapiens; conditions: Homo sapiens, NB5;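 also: growth inhibition of NB5 cells, read out as cell viability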
Description: SANGER: Inhibition of human NB5 cell growth in a cell viability assay.

GR-ST = type: functional, cell-based, Homo sapiens; conditions: Homo sapiens, GR-ST
Description: SANGER: Inhibition of human GR-ST cell growth in a cell viability assay.

GOTO = type: functional, cell-based, Homo sapiens; conditions: Homo sapiens, GOTO;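 also: growth inhibition of GOTO cells, read out by a cell viability assay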
Description: SANGER: Inhibition of human GOTO cell growth in a cell viability assay.

NCI-H23 = type: functional, cell-based, Homo sapiens; conditions: Homo sapiens, NCI-H23;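 also: cell viability assay measuring growth inhibition of NCI-H23 cells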
Description: SANGER: Inhibition of human NCI-H23 cell growth in a cell viability assay.

COLO-824 = type: functional, cell-based, Homo sapiens; conditions: Homo sapiens, COLO-824
Description: SANGER: Inhibition of human COLO-824 cell growth in a cell viability assay.

KM-H2 = type: functional, cell-based, Homo sapiens; conditions: Homo sapiens, KM-H2;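 also: growth inhibition of KM-H2 cells, read out by a cell viability assay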
Description: SANGER: Inhibition of human KM-H2 cell growth in a cell viability assay.

MHH-NB-11 = type: functional, cell-based, Homo sapiens; conditions: Homo sapiens, MHH-NB-11;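 also: growth inhibition of human MHH-NB-11 cells, read out by a cell viability assay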
Description: SANGER: Inhibition of human MHH-NB-11 cell growth in a cell viability assay.

NCI-H209 = type: functional, cell-based, Homo sapiens; conditions: Homo sapiens, NCI-H209;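 also: growth inhibition of human NCI-H209 cells, measured by a cell viability assay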
Description: SANGER: Inhibition of human NCI-H209 cell growth in a cell viability assay.

Becker = type: functional, cell-based, Homo sapiens; conditions: Homo sapiens, Becker;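 also: growth inhibition of Becker cells, read out with a cell viability assay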
Description: SANGER: Inhibition of human Becker cell growth in a cell viability assay.

HCC2218 = type: functional, cell-based, Homo sapiens; conditions: Homo sapiens, HCC2218;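 also: cell viability assay read-out, with IC50 given as the concentration that inhibits growth of the cell line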
Description: SANGER: Inhibition of human HCC2218 cell growth in a cell viability assay.

SW872 = type: functional, cell-based, Homo sapiens; conditions: Homo sapiens, SW872;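 also: growth inhibition of SW872 cells, read out by a viability assay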
Description: SANGER: Inhibition of human SW872 cell growth in a cell viability assay.

MLMA = type: functional, cell-based, Homo sapiens; conditions: Homo sapiens, MLMA;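 also: growth inhibition of MLMA cells (human), determined through a cell viability readout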
Description: SANGER: Inhibition of human MLMA cell growth in a cell viability assay.

CW-2 = type: functional, cell-based, Homo sapiens; conditions: Homo sapiens, CW-2;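 also: growth inhibition of CW-2 cells, read out by a cell viability assay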
Description: SANGER: Inhibition of human CW-2 cell growth in a cell viability assay.

EW-11 = type: functional, cell-based, Homo sapiens; conditions: Homo sapiens, EW-11;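 also: growth inhibition of human EW-11 cells, measured with a cell viability assay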
Description: SANGER: Inhibition of human EW-11 cell growth in a cell viability assay.

KNS-42 = type: functional, cell-based; conditions: Homo sapiens;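 also: growth inhibition of KNS-42 cells, read out with a cell viability assay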
Description: SANGER: Inhibition of human KNS-42 cell growth in a cell viability assay.

OS-RC-2 = type: functional, cell-based, Homo sapiens; conditions: Homo sapiens, OS-RC-2;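 also: growth inhibition of human OS-RC-2 cells, measured by a cell viability assay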
Description: SANGER: Inhibition of human OS-RC-2 cell growth in a cell viability assay.

Lu-65 = type: functional, cell-based, Homo sapiens; conditions: Homo sapiens, Lu-65;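 also: growth inhibition of Lu-65 cancer cells, read out by a cell viability assay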
Description: SANGER: Inhibition of human LU-65 cell growth in a cell viability assay.

KP-N-YS = type: functional, cell-based, Homo sapiens; conditions: Homo sapiens, KP-N-YS;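 also: cell viability assay measuring inhibition of cell line growth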
Description: SANGER: Inhibition of human KP-N-YS cell growth in a cell viability assay.

NCI-H446 = type: functional, cell-based, Homo sapiens; conditions: Homo sapiens, NCI-H446;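 also: growth inhibition of NCI-H446 cells determined by a cell viability assay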
Description: SANGER: Inhibition of human NCI-H446 cell growth in a cell viability assay.

NH-12 = type: functional, cell-based, Homo sapiens; conditions: Homo sapiens, NH-12;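 also: growth inhibition of NH-12 cells, read out with a cell viability assay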
Description: SANGER: Inhibition of human NH-12 cell growth in a cell viability assay.

HD-MY-Z = type: functional, cell-based, Homo sapiens; conditions: Homo sapiens, HD-MY-Z;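 also: growth inhibition of HD-MY-Z cells, read out with a cell viability assay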
Description: SANGER: Inhibition of human HD-MY-Z cell growth in a cell viability assay.

DB = type: functional, cell-based, Homo sapiens; conditions: Homo sapiens, DB
Description: SANGER: Inhibition of human DB cell growth in a cell viability assay.

SNU1 = type: functional, cell-based, Homo sapiens; conditions: Homo sapiens, SNU1;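 also: growth inhibition of human NCI-SNU-1 cells, measured with a cell viability assay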
Description: SANGER: Inhibition of human NCI-SNU-1 cell growth in a cell viability assay.

SMILES: Cc1cc(N2CCOCC2)cc2[nH]c(-c3c(NC[C@@H](O)c4cccc(Cl)c4)cc[nH]c3=O)nc12
- IC50 (OMC-1): > 5.12 µM
- IC50 (SF-268): 3.04 µM
- IC50 (ES7): > 5.12 µM
- IC50 (HT-144): 1.82 µM
- IC50 (COLO-800): > 5.12 µM
- IC50 (NCI-H1304): > 5.12 µM
- IC50 (MMAC-SF): 0.5 µM
- IC50 (RCC10RGB): 3.57 µM
- IC50 (EW-13): > 5.12 µM
- IC50 (HCE-T): > 5.12 µM
- IC50 (COR-L88): > 5.12 µM
- IC50 (NCI-H747): 0.68 µM
- IC50 (NCI-H1838): > 5.12 µM
- IC50 (GI-ME-N): 2.06 µM
- IC50 (MSTO-211H): > 5.12 µM
- IC50 (HH): > 5.12 µM
- IC50 (LB2241-RCC): > 5.12 µM
- IC50 (SJSA-1): 0.456 µM
- IC50 (CGTH-W-1): > 5.12 µM
- IC50 (ALL-PO): 0.373 µM
- IC50 (LXF-289 cell line): 1.55 µM
- IC50 (SK-MEL-2): > 5.12 µM
- IC50 (MPP-89): 3.5 µM
- IC50 (K562): > 5.12 µM
- IC50 (SNU-5): > 5.12 µM
- IC50 (SBC-1): > 5.12 µM
- IC50 (NB5): 1.11 µM
- IC50 (GR-ST): 3.27 µM
- IC50 (GOTO): > 5.12 µM
- IC50 (NCI-H23): > 5.12 µM
- IC50 (COLO-824): > 5.12 µM
- IC50 (KM-H2): > 5.12 µM
- IC50 (MHH-NB-11): > 5.12 µM
- IC50 (NCI-H209): > 5.12 µM
- IC50 (Becker): 4.79 µM
- IC50 (HCC2218): > 5.12 µM
- IC50 (SW872): 1.98 µM
- IC50 (MLMA): 2.01 µM
- IC50 (CW-2): > 5.12 µM
- IC50 (EW-11): > 5.12 µM
- IC50 (KNS-42): > 5.12 µM
- IC50 (OS-RC-2): 1.46 µM
- IC50 (Lu-65): 4.5 µM
- IC50 (KP-N-YS): > 5.12 µM
- IC50 (NCI-H446): > 5.12 µM
- IC50 (NH-12): > 5.12 µM
- IC50 (HD-MY-Z): > 5.12 µM
- IC50 (DB): > 5.12 µM
- IC50 (SNU1): > 5.12 µM

SMILES: NC(=O)c1cccc(-c2cc(Nc3ccc(OC(F)(F)F)cc3)ncn2)c1
- IC50 (OMC-1): > 1.28 µM
- IC50 (SF-268): > 1.28 µM
- IC50 (ES7): > 1.28 µM
- IC50 (HT-144): > 1.28 µM
- IC50 (COLO-800): > 1.28 µM
- IC50 (NCI-H1304): > 1.28 µM
- IC50 (MMAC-SF): > 1.28 µM
- IC50 (RCC10RGB): > 1.28 µM
- IC50 (EW-13): > 1.28 µM
- IC50 (HCE-T): > 1.28 µM
- IC50 (COR-L88): > 1.28 µM
- IC50 (NCI-H747): > 1.28 µM
- IC50 (NCI-H1838): > 1.28 µM
- IC50 (GI-ME-N): > 1.28 µM
- IC50 (MSTO-211H): > 1.28 µM
- IC50 (HH): > 1.28 µM
- IC50 (LB2241-RCC): > 1.28 µM
- IC50 (SJSA-1): > 1.28 µM
- IC50 (CGTH-W-1): > 1.28 µM
- IC50 (ALL-PO): > 1.28 µM
- IC50 (LXF-289 cell line): > 1.28 µM
- IC50 (SK-MEL-2): > 1.28 µM
- IC50 (MPP-89): > 1.28 µM
- IC50 (K562): 0.361 µM
- IC50 (SNU-5): > 1.28 µM
- IC50 (SBC-1): 1 µM
- IC50 (NB5): > 1.28 µM
- IC50 (GR-ST): > 1.28 µM
- IC50 (GOTO): > 1.28 µM
- IC50 (NCI-H23): > 1.28 µM
- IC50 (COLO-824): > 1.28 µM
- IC50 (KM-H2): > 1.28 µM
- IC50 (MHH-NB-11): > 1.28 µM
- IC50 (NCI-H209): > 1.28 µM
- IC50 (Becker): > 1.28 µM
- IC50 (HCC2218): > 1.28 µM
- IC50 (SW872): > 1.28 µM
- IC50 (MLMA): > 1.28 µM
- IC50 (CW-2): > 1.28 µM
- IC50 (EW-11): > 1.28 µM
- IC50 (KNS-42): > 1.28 µM
- IC50 (OS-RC-2): > 1.28 µM
- IC50 (Lu-65): > 1.28 µM
- IC50 (KP-N-YS): > 1.28 µM
- IC50 (NCI-H446): > 1.28 µM
- IC50 (NH-12): > 1.28 µM
- IC50 (HD-MY-Z): > 1.28 µM
- IC50 (DB): > 1.28 µM
- IC50 (SNU1): > 1.28 µM

SMILES: Nc1ccccc1NC(=O)c1ccc(CNC(=O)OCc2cccnc2)cc1 [ENTINOSTAT]
- IC50 (OMC-1): > 5 µM
- IC50 (SF-268): 3.48 µM
- IC50 (ES7): 1.8 µM
- IC50 (HT-144): 0.303 µM
- IC50 (COLO-800): > 5 µM
- IC50 (NCI-H1304): 3.01 µM
- IC50 (MMAC-SF): > 5 µM
- IC50 (RCC10RGB): > 5 µM
- IC50 (EW-13): > 5 µM
- IC50 (HCE-T): 0.872 µM
- IC50 (COR-L88): 0.23 µM
- IC50 (NCI-H747): 3.05 µM
- IC50 (NCI-H1838): > 5 µM
- IC50 (GI-ME-N): 4.06 µM
- IC50 (MSTO-211H): 1.48 µM
- IC50 (HH): 0.99 µM
- IC50 (LB2241-RCC): 1.29 µM
- IC50 (SJSA-1): 1.52 µM
- IC50 (CGTH-W-1): 2.42 µM
- IC50 (ALL-PO): 0.0636 µM
- IC50 (LXF-289 cell line): 0.959 µM
- IC50 (SK-MEL-2): > 5 µM
- IC50 (MPP-89): 2.33 µM
- IC50 (K562): 1.39 µM
- IC50 (SNU-5): > 5 µM
- IC50 (SBC-1): 1.43 µM
- IC50 (NB5): 1.66 µM
- IC50 (GR-ST): 1.57 µM
- IC50 (GOTO): 0.951 µM
- IC50 (NCI-H23): > 5 µM
- IC50 (COLO-824): > 5 µM
- IC50 (KM-H2): 1.57 µM
- IC50 (MHH-NB-11): 0.435 µM
- IC50 (NCI-H209): 0.406 µM
- IC50 (Becker): 4.37 µM
- IC50 (HCC2218): 1.17 µM
- IC50 (SW872): 1.81 µM
- IC50 (MLMA): 1.88 µM
- IC50 (CW-2): 0.658 µM
- IC50 (EW-11): > 5 µM
- IC50 (KNS-42): > 5 µM
- IC50 (OS-RC-2): 0.968 µM
- IC50 (Lu-65): 4.15 µM
- IC50 (KP-N-YS): > 5 µM
- IC50 (NCI-H446): > 5 µM
- IC50 (NH-12): > 5 µM
- IC50 (HD-MY-Z): 1.75 µM
- IC50 (DB): 1.7 µM
- IC50 (SNU1): > 5 µM
